Test results published in ChEMBL document CHEMBL2157929, “Synthesis and structure-activity relationship of fused-pyrimidine derivatives as a series of novel GPR119 agonists” (Bioorg Med Chem, 2012).
Values after ≈ are worked out from the molar mass of the structure shown.

How the values were obtained:
Mus musculus [1] = assay: Antihyperglycemic activity in po dosed ICR mouse assessed as reduction of blood glucose level after 30 mins by oral glucose tolerance test; type: functional; conditions: 0.5 h, read-out: MED
[2] = Solubility of compound at pH 6.8 after 20 hrs by precipitation method; type: physicochemical; conditions: buffer
Mus musculus [3] = assay: Antihyperglycemic activity in ICR mouse assessed as reduction of blood glucose level at 0.3 mg/kg, po after 30 mins by oral glucose tolerance test; type: functional; design: scale not given: the % may be the effect or the level left
[4] = molecular target: T1, Glucose-dependent insulinotropic receptor (Homo sapiens) (UniProt Q8TDV5); assay: Agonist activity at human recombinant GPR119 expressed in HEK293 cells co-expressing pCRE-Luc at 10 uM after 6 hrs by cAMP reporter assay relative to 2-(2-(4-bromophenyl)-6-methylpyrimidin-4-ylamino)ethanol; type: functional, cell-based
T1 sequence (whole entry): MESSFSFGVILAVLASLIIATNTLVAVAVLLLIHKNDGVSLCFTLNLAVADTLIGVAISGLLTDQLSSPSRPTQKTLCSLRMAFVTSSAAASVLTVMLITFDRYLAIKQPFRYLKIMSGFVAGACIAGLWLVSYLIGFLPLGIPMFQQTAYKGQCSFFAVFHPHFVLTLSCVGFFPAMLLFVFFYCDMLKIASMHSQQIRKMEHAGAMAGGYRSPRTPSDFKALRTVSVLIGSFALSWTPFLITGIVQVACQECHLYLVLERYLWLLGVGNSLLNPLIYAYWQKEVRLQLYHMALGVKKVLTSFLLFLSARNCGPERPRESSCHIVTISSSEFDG

[5] = molecular target: T1, Glucose-dependent insulinotropic receptor (Homo sapiens); assay: Agonist activity at human recombinant GPR119 expressed in HEK293 cells co-expressing pCRE-Luc assessed as concentration required to showing equipotent efficacy to 2-(2-(4-bromophenyl)-6-methylpyrimidin-4-ylamino)ethanol after 6 hrs by cAMP reporter assay; type: functional, cell-based
Mus musculus [6] = assay: Antihyperglycemic activity in ICR mouse assessed as reduction of blood glucose level at 1 mg/kg, po after 30 mins by oral glucose tolerance test; type: functional; design: scale not given: the % may be the effect or the level left
Mus musculus [7] = assay: Antihyperglycemic activity in ICR mouse assessed as reduction of blood glucose level at 3 mg/kg, po after 30 mins by oral glucose tolerance test; type: functional; design: scale not given: the % may be the effect or the level left
[8] = Clearance in human liver microsomes; type: ADME, Microsome; conditions: read-out: CLH
[9] = Inhibition of cytochrome P450 up to 50 uM; type: ADME
Mus musculus [10] = assay: Antihyperglycemic activity in ICR mouse assessed as reduction of blood glucose level at 0.1 mg/kg, po after 30 mins by oral glucose tolerance test; type: functional; design: scale not given: the % may be the effect or the level left

SMILES	solubility kinetic at 20 h [2]	Intrinsic activity [4]	EC [5]	CLint scaled [8]	inhibition (INH) [9]	minimal effective dose (Mus musculus [1])	Activity (Mus musculus [3])	Activity (Mus musculus [6])	Activity (Mus musculus [7])	Activity (Mus musculus [10])
NC(=O)CCC1CCN(c2nc(-c3cc(F)c(Cl)cc3F)nc3c2CS(=O)(=O)C3)CC1	8 µM (≈ 3.77 µg/mL)	627%	18 nM			0.3 mg/kg	30%			
O=S1(=O)Cc2nc(-c3cc(F)c(Cl)cc3F)nc(N3CCOCC3)c2C1	< 1 µM	668%	28 nM			1 mg/kg		30%		
Fc1cc(-c2nc3c(c(N4CCOCC4)n2)COC3)c(F)cc1Cl		205%	4100 nM							
Fc1cc(-c2nc3c(c(N4CCOCC4)n2)CCS3)c(F)cc1Cl		258%	970 nM							
O=S1(=O)Cc2nc(-c3cc(F)c(Cl)cc3F)nc(N3CCC(CO)CC3)c2C1	16 µM (≈ 6.88 µg/mL)	501%	3.9 nM			0.3 mg/kg		29%		
Fc1cc(-c2nc3c(c(N4CCOCC4)n2)SCC3)c(F)cc1Cl		426%	57 nM							
NC(=O)CN1CCN(c2nc(-c3cc(F)c(Cl)cc3F)nc3c2CS(=O)(=O)C3)CC1	> 100 µM	737%	44 nM			3 mg/kg		17%		
Fc1cc(-c2nc3c(c(N4CCOCC4)n2)CSC3)c(F)cc1Cl		467%	150 nM							
O=S1(=O)Cc2nc(-c3cc(F)c(Cl)cc3F)nc(N3CCC(CCO)CC3)c2C1	23 µM (≈ 10.2 µg/mL)	506%	2.8 nM			1 mg/kg		29%		
Fc1cc(-c2nc3c(c(N4CCOCC4)n2)CCCC3)c(F)cc1Cl		313%	770 nM							
Fc1cc(-c2nc3c(c(N4CCOCC4)n2)CCC3)c(F)cc1Cl		405%	350 nM							

More lines, main results first:

solubility kinetic at 20 h [2]	Intrinsic activity [4]	EC [5]	CLint scaled [8]	inhibition (INH) [9]	SMILES	minimal effective dose (Mus musculus [1])	Activity (Mus musculus [3])	Activity (Mus musculus [6])	Activity (Mus musculus [7])	Activity (Mus musculus [10])
	528%	560 nM			O=C(O)C1CCN(c2nc(-c3cc(F)c(Cl)cc3F)nc3c2CS(=O)(=O)C3)CC1	> 3 mg/kg			15%	
91 µM (≈ 37.8 µg/mL)	575%	14 nM			O=S1(=O)Cc2nc(-c3cc(F)c(Cl)cc3F)nc(N3CCC(O)CC3)c2C1	1 mg/kg		32%		
11 µM (≈ 5.03 µg/mL)	457%	51 nM			CNC(=O)C1CCN(c2nc(-c3cc(F)c(Cl)cc3F)nc3c2CS(=O)(=O)C3)CC1	3 mg/kg				
40 µM (≈ 17.7 µg/mL)	294%	21 nM			NC(=O)C1CCN(c2nc(-c3cc(F)c(Cl)cc3F)nc3c2CS(=O)(=O)C3)CC1	3 mg/kg		12%		
15 µM (≈ 6.85 µg/mL)	483%	8.3 nM	58 mL/min/kg	Not Active	NC(=O)CC1CCN(c2nc(-c3cc(F)c(Cl)cc3F)nc3c2CS(=O)(=O)C3)CC1	0.1 mg/kg		35%		27%
> 100 µM	292%	350 nM			CN(C)C(=O)C1CCN(c2nc(-c3cc(F)c(Cl)cc3F)nc3c2CS(=O)(=O)C3)CC1	1 mg/kg		32%		
